Experimental data published in PubChem BioAssay (NCI).
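All cell lines were grown in 96-well plates and treated with compound for 48 hours. Abbreviation: GI50, concentration required for 50% inhibition of growth. TGI denotes the concentration required for complete inhibition of growth.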

Tests used:
Experiment in all cases: NCI anticancer screen, dose series, 48 h
PC-3 prostate = system: PC-3 prostate
SN12C renal = system: SN12C renal
KM12 colon = system: KM12 colon
SW-620 colon = system: SW-620 colon
HOP-62 NSCLC = system: HOP-62 NSCLC
RXF 393 renal = system: RXF 393 renal
A549 NSCLC = system: A549 NSCLC
COLO 205 colon = system: COLO 205 colon
MALME-3M melanoma = system: MALME-3M melanoma
LOX IMVI melanoma = system: LOX IMVI melanoma
NCI-H522 lung = system: NCI-H522 lung
MDA-N = system: MDA-N
NCI-H226 lung = system: NCI-H226 lung
SK-OV-3 ovarian = system: SK-OV-3 ovarian
BT-549 breast = system: BT-549 breast

SMILES	TGI (PC-3 prostate) [µM]	TGI (SN12C renal) [µM]	TGI (KM12 colon) [µM]	TGI (SW-620 colon) [µM]	TGI (HOP-62 NSCLC) [µM]	TGI (RXF 393 renal) [µM]	TGI (A549 NSCLC) [µM]	TGI (COLO 205 colon) [µM]	TGI (MALME-3M melanoma) [µM]	TGI (LOX IMVI melanoma) [µM]	TGI (NCI-H522 lung) [µM]	TGI (MDA-N) [µM]	TGI (NCI-H226 lung) [µM]	TGI (SK-OV-3 ovarian) [µM]	TGI (BT-549 breast) [µM]	GI50 (PC-3 prostate) [µM]	GI50 (SN12C renal) [µM]	GI50 (BT-549 breast) [µM]	GI50 (RXF 393 renal) [µM]	GI50 (SK-OV-3 ovarian) [µM]
N#C/C(=C/n1c(=S)[nH]c2ccccc21)C(N)=O	> 100	> 100	> 100	> 100	> 100	> 100	> 100	> 100	> 100	> 100	> 100	> 100	> 100	> 100						
Brc1c2nc3ccccc3nc2n2ccc3ccccc3c12		> 100	> 100	> 100	> 100		> 100	> 100	> 100	> 100	> 100			> 100						
NC(=O)COc1c(Br)cc(Br)cc1Br		> 100	> 100		> 100		> 100	> 100	> 100		> 100		> 100	> 100						
Nc1ccc2nc(Nc3ccc(Cl)c(Cl)c3)cnc2c1		33	32.3	33.7	36.2		41.9	34.9	35.3	28	21.6		41.8							
COc1ccc(OC)c(NC2=NCCO2)c1	> 100	> 100	> 100	28.2	> 100	> 100	> 100	> 100	> 100	> 100	> 100	> 100	> 100							
CCOC(=O)CCC(NC(=O)c1ccc(Nc2nc3cc(C(F)(F)F)ccc3nc2C(=O)OCC)cc1)C(=O)OCC (stereo not given)	21.5	24.3		81.6	27		27.4	> 100		36.2	42.2	21.3			29.8					
CCCCCCCCCCCCCCCCNCC(O)CN (stereo not given)		12.9	3.66	3.17	33.4	8.16	10.2	3.81	30.2	3.45	33.2		25.6	35.9						
O=C(NC12CC3CC(CC(C3)C1)C2)C(=O)c1c[nH]c2ccc(Br)cc12		61.2	41.7	> 100		6.39	42.4	45.1	68.6	18.4	> 100		41.8	60.8						
C[C@]12C(=O)C=CCC1=CC[C@@H]1[C@@H]2[C@H]2CC3(O)C(=O)O[C@@]4(C)[C@H]5C[C@@]6(C)[C@@H]7[C@@]2(O)[C@]1(OC[C@H]6C(=O)O5)O[C@]734 (stereo not given in full)	> 100	> 100	> 100	> 100		55.7	> 100	> 100	> 100	75.5	46.2	> 100								
CC(C)(C)c1ccc(O)c(C(c2ccc([N+](=O)[O-])cc2)c2cc(C(C)(C)C)ccc2O)c1	3.33	4.02		4.71	3.39	3.66	3.77	5.8			4.32		3.51	4.15						
Cc1nc2ccccc2c(=O)n1NC(=O)c1ccccc1[N+](=O)[O-]	> 100	> 100	> 100	> 100	> 100		> 100		> 100	> 100	> 100		> 100	> 100	> 100					
CC(C(=O)NCCNC(=O)CCC(=O)N(C)O)C(=O)NCCNC(=O)CCC(=O)N(C)O	> 100		> 100	> 100	> 100	> 100	> 100	> 100	> 100	> 100	> 100	> 100	> 100	> 100						
Fc1ccc2[nH]cc(-c3nc(-c4c[nH]c5ccncc45)cs3)c2c1	2.99	2.92				2.86								3.22	3.07	1.47	1.52	1.65	1.48	1.65
Cc1ccc(S(=O)(=O)NC(=O)NCCc2ccc(O)c(O)c2)cc1	> 100		> 100	> 100	> 100	> 100	> 100	> 100	> 100	> 100	> 100		> 100	> 100						
COc1ccc(N2CN(C)CSC2=S)cc1	> 100	> 100	> 100	> 100	61.5	> 100	> 100	> 100	> 100	> 100	> 100			66.8	> 100					
C/C=C/c1cc2c(c(=O)o1)C(=O)[C@@H](O)[C@H](C)O2		29.2	31	22.9	60.8	27.2	34.3	25.7	32.5	26.4	20.4		38.5	> 84.4						
C=CC(C)(C)C1(CC(OC)OC)C(=O)N(C)c2ccccc21 (stereo not given)	> 25	> 25	> 25	> 25	> 25	> 25	> 25	> 25		> 25		> 25	> 25	> 25						
COc1cc(OCc2nc3cc(C(F)(F)F)ccc3nc2-c2ccccc2)cc(OC)c1OC	> 100		> 100	> 100		65.8	> 100	> 100	> 100	> 100			> 100	> 100	> 100					
COc1cccc2c1C(=O)c1c(O)c3c(c(O)c1C2=O)C[C@@](O)(C(=O)CN1CCOCC1)C[C@@H]3OC1CC(N)C(O)C(C)O1 (stereo not given in full)		> 100	51.5	> 78.7	14.2	23.9	48.6	24.1	14.2	45.3	15.4		8.78	> 100						

SMILES	TGI (PC-3 prostate) [µM]	TGI (SN12C renal) [µM]	TGI (KM12 colon) [µM]	TGI (SW-620 colon) [µM]	TGI (HOP-62 NSCLC) [µM]	TGI (RXF 393 renal) [µM]	TGI (A549 NSCLC) [µM]	TGI (COLO 205 colon) [µM]	TGI (MALME-3M melanoma) [µM]	TGI (LOX IMVI melanoma) [µM]	TGI (NCI-H522 lung) [µM]	TGI (MDA-N) [µM]	TGI (NCI-H226 lung) [µM]	TGI (SK-OV-3 ovarian) [µM]	TGI (BT-549 breast) [µM]	GI50 (PC-3 prostate) [µM]	GI50 (SN12C renal) [µM]	GI50 (BT-549 breast) [µM]	GI50 (RXF 393 renal) [µM]	GI50 (SK-OV-3 ovarian) [µM]
CC(C)NCC(O)c1ccc(O)c2ncccc12 (stereo not given)	> 100	> 100	> 100	> 100	> 100	> 100	> 100	36.4		> 100	> 100	> 100	> 100	> 100	> 100					
Nc1nc2c(c(-c3ccccc3Cl)n1)COC/C2=C\c1ccccc1Cl	27.4	31.3	41.8	31.8	32.2	29.9		30.1		36.9	31	24.1	39.2	30	33.4					
Cc1c(-c2coc(-c3ccccc3)n2)c(=O)n(-c2ccccc2)n1C		> 100	> 100	> 100	> 100		> 100	> 100	> 100	> 100	> 100		> 100	> 100						
CC1(C)Oc2ccc3c(=O)cc(-c4cccs4)oc3c2C1C(=O)O (stereo not given)	> 100	> 100			> 100	> 100	> 100	> 100	> 100		> 100	> 100	> 100	> 100						
Clc1ccc2nc3n[nH]c(Cl)c3nc2c1	> 100	> 100	> 100	> 100	> 100	> 100	> 100	> 100				> 100		> 100	> 100					
N#CNC(=NCc1ccccc1)NCCc1c[nH]c2ccccc12		> 100	> 100	> 100	> 100	> 100	> 100	> 100		> 100			> 100	> 100						
Nc1ncnc2c1sc(=S)n2-c1ccccc1		> 100	> 100	> 100	> 100	> 100	> 100	> 100	> 100	> 100	> 100		> 100	> 100						
COc1cc(NS(C)(=O)=O)ccc1NCc1cnc2ccc3[nH]cccc3c12	42.3	67.4	37.6	> 92	55.6	21.3	> 96.3	31.3	43.4	63.4	39.9		35.6	48	52.6					
N=c1n(CC(=O)NC23CC4CC(CC(C4)C2)C3)c2ccccc2n1CC(=O)NC12CC3CC(CC(C3)C1)C2		3.45	2.98	3	3.48	3.17		3.49	3.04		3.3			29.1						
CO[C@H]1CC[C@]2(C)C3=CC[C@@]4(C)C(CC[C@@H]4C(C)CC[C@@H](C)C(C)C)C(=CCC2C1)O3 (stereo not given in full)		> 25	> 25	> 25	> 25	> 25	> 25	> 25	> 25	> 25	> 25		> 25	> 25						
Cc1nc(N)sc1C(=O)Nc1ncn[nH]1	> 100	> 100	> 100	> 100	> 100	> 100	> 100	> 100		> 100	> 100	> 100	> 100	> 100	> 100					
COC(=O)CCCC1(CCCC(=O)OC)CCCCCCCCC(CCCC(=O)OC)(CCCC(=O)OC)C(=O)C1=O	53.5	> 100	> 100	> 100	> 100	69.9	29.9	> 100	60.1	48.5	5.38	> 100	> 100	> 100						
C[N+](C)(C)CCOC(=O)/C=C/c1cnc[nH]1		> 500	> 500	> 500	> 500	> 500	> 500	> 500	> 500	> 500	> 500		> 500	> 500						
O=S(c1ccccc1)C1CC2CC3(CCC21O)OCCO3 (stereo not given)	> 100		> 100	> 100	> 100	> 100	> 100	> 100	> 100	> 100	> 100	> 100	> 100	> 100						
Cn1c(=O)c2c(nc3n2CCC(=O)N3CCCCl)n(C)c1=O	> 100	> 100	> 100	> 100	> 100		> 100	> 100		> 100		> 100	> 100	> 100	> 100					
CC(=O)Oc1c2c(c(OC(C)=O)c3c1n(C(C)=O)c1ccccc1n3C(C)=O)n(C(C)=O)c1ccccc1n2C(C)=O		19.3	31.5	5.67	53.5	26.8	24.2		7.56	24.6	5.97			50						
Cc1ccc2n(c1)cc(-c1ccc(/C=N/NC(=N)N/N=C/c3ccc(-c4cn5cc(C)ccc5[n+]4C)cc3)cc1)[n+]2C	> 100	> 100	> 100	> 100	> 100		> 100	> 100			> 100	> 100		> 100						
c1ccc2[nH]c3c(N=NC4=NCCN4)c4ccccc4c-3nc2c1		> 100	15.8	13.6	39.3	14.3	16.8		24.1		17.3	20.7	23.7		41.9					
